Reference: the supplement of paper PMC6045584
± gives the standard deviation of the averaged measurements.

Key:
DASATINIB = compound: Cc1nc(Nc2ncc(C(=O)Nc3c(C)cccc3Cl)s2)cc(N2CCN(CCO)CC2)n1 [DASATINIB]; assay: surviving fraction relative to DMSO-only wells; higher = less growth inhibition; settings: exposure time: 5 days
Procedure, shortened: (§1)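 Surviving fraction was calculated by normalising CellTiter-Glo luminescence to the median of DMSO-only wells. Tumour cell lines in log phase were seeded in 384-well plates at 250–500 cells per well, and 24 hours later were exposed continuously for five days to inhibitors at 0.5, 1, 5, 10, 50, 100, 500 and 1000 nM.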

ABIRATERONE = compound: C[C@]12CC[C@H](O)CC1=CC[C@@H]1[C@@H]2CC[C@]2(C)C(c3cccnc3)=CC[C@@H]12 [ABIRATERONE]; assay: as above; settings: exposure time: 5 days
Procedure, shortened: as §1

Row | Test System | surviving fraction (DASATINIB; 0.5 nM) | surviving fraction (DASATINIB; 1 nM) | surviving fraction (DASATINIB; 5 nM) | surviving fraction (DASATINIB; 10 nM) | surviving fraction (DASATINIB; 50 nM) | surviving fraction (DASATINIB; 100 nM) | surviving fraction (DASATINIB; 500 nM) | surviving fraction (DASATINIB; 1000 nM) | surviving fraction (ABIRATERONE; 0.5 nM) | surviving fraction (ABIRATERONE; 1 nM) | surviving fraction (ABIRATERONE; 5 nM) | surviving fraction (ABIRATERONE; 10 nM) | surviving fraction (ABIRATERONE; 50 nM) | surviving fraction (ABIRATERONE; 100 nM) | surviving fraction (ABIRATERONE; 500 nM) | surviving fraction (ABIRATERONE; 1000 nM)
1 | LM7 BONE | 0.732 ± 0.032 | 0.694 ± 0.031 | 0.616 ± 0.044 | 0.576 ± 0.028 | 0.443 ± 0.036 | 0.338 ± 0.014 | 0.206 ± 0.031 | 0.211 ± 0.008 | 0.954 ± 0.014 | 0.963 ± 0.097 | 1.07 ± 0.15 | 1.01 ± 0.026 | 1.05 ± 0.021 | 1.06 ± 0.094 | 0.97 ± 0.058 | 0.979 ± 0.038
2 | MFM223 BREAST | 0.778 ± 0.17 | 0.785 ± 0.2 | 0.767 ± 0.18 | 0.684 ± 0.05 | 0.834 ± 0.059 | 0.86 ± 0.1 | 0.788 ± 0.091 | 0.68 ± 0.06 | 1.19 ± 0.033 | 1.1 ± 0.08 | 1.17 ± 0.031 | 1.14 ± 0.099 | 1.22 ± 0.029 | 1.22 ± 0.015 | 1.2 ± 0.1 | 1.1 ± 0.1
3 | MDAMB453 BREAST | 1.03 ± 0.046 | 0.995 ± 0.047 | 1.06 ± 0.018 | 1 ± 0.047 | 1.03 ± 0.025 | 1.02 ± 0.052 | 1 ± 0.036 | 1.02 ± 0.091 | 1.05 ± 0.053 | 1.04 ± 0.13 | 1.15 ± 0.028 | 1.06 ± 0.072 | 1.09 ± 0.086 | 1.08 ± 0.0082 | 1.01 ± 0.029 | 1.006 ± 0.0072
4 | JIMT1 BREAST | 0.859 ± 0.034 | 0.844 ± 0.033 | 0.802 ± 0.034 | 0.68 ± 0.024 | 0.394 ± 0.041 | 0.182 ± 0.018 | 0.0683 ± 0.012 | 0.0518 ± 0.0019 | 0.9997 ± 0.0033 | 0.965 ± 0.027 | 0.981 ± 0.02 | 0.962 ± 0.013 | 1.08 ± 0.047 | 1.08 ± 0.032 | 1.02 ± 0.042 | 0.929 ± 0.012
5 | NOS1 BONE | 0.817 ± 0.083 | 0.726 ± 0.086 | 0.587 ± 0.026 | 0.464 ± 0.021 | 0.296 ± 0.004 | 0.256 ± 0.028 | 0.2 ± 0.026 | 0.193 ± 0.014 | 1.27 ± 0.16 | 1.05 ± 0.044 | 1.23 ± 0.089 | 1.22 ± 0.099 | 1.19 ± 0.15 | 1.24 ± 0.17 | 1.2 ± 0.095 | 0.999 ± 0.04
6 | HOSMNG BONE | 0.979 ± 0.032 | 0.971 ± 0.05 | 0.868 ± 0.021 | 0.741 ± 0.027 | 0.603 ± 0.021 | 0.457 ± 0.016 | 0.36 ± 0.019 | 0.372 ± 0.0076 | 0.985 ± 0.035 | 0.99 ± 0.049 | 1 ± 0.077 | 0.973 ± 0.039 | 1.08 ± 0.042 | 1.1 ± 0.087 | 1.05 ± 0.096 | 1.08 ± 0.014
7 | BT549 BREAST | 0.968 ± 0.16 | 0.937 ± 0.12 | 0.774 ± 0.12 | 0.669 ± 0.056 | 0.395 ± 0.037 | 0.236 ± 0.018 | 0.113 ± 0.012 | 0.114 ± 0.037 | 0.768 ± 0.079 | 1.07 ± 0.083 | 0.991 ± 0.012 | 1.02 ± 0.059 | 0.92 ± 0.067 | 1.15 ± 0.13 | 1.07 ± 0.038 | 1.2 ± 0.17
8 | CAL120 BREAST | 0.877 ± 0.098 | 0.882 ± 0.025 | 0.861 ± 0.013 | 0.786 ± 0.062 | 0.497 ± 0.022 | 0.358 ± 0.021 | 0.217 ± 0.0088 | 0.192 ± 0.015 | 0.954 ± 0.011 | 1 ± 0.015 | 1.01 ± 0.013 | 1.01 ± 0.011 | 1.04 ± 0.059 | 1.04 ± 0.041 | 1.05 ± 0.028 | 0.988 ± 0.037
9 | VP229 BREAST | 0.813 ± 0.044 | 0.855 ± 0.081 | 0.708 ± 0.031 | 0.619 ± 0.027 | 0.467 ± 0.032 | 0.484 ± 0.0085 | 0.45 ± 0.031 | 0.484 ± 0.018 | 1.03 ± 0.052 | 0.99 ± 0.032 | 0.997 ± 0.1 | 1.09 ± 0.1 | 1.03 ± 0.013 | 1.04 ± 0.03 | 1.26 ± 0.16 | 1.11 ± 0.16
10 | HT1080 SOFT TISSUE | 0.975 ± 0.032 | 0.947 ± 0.043 | 0.918 ± 0.02 | 0.841 ± 0.046 | 0.61 ± 0.017 | 0.541 ± 0.017 | 0.428 ± 0.023 | 0.427 ± 0.01 | 1.01 ± 0.013 | 1.05 ± 0.015 | 1.03 ± 0.012 | 1.02 ± 0.017 | 1.01 ± 0.023 | 1.02 ± 0.02 | 1.04 ± 0.027 | 0.997 ± 0.019
11 | ZR751 BREAST | 0.934 ± 0.066 | 0.965 ± 0.23 | 0.851 ± 0.098 | 0.835 ± 0.045 | 0.877 ± 0.12 | 0.852 ± 0.18 | 1 ± 0.14 | 0.922 ± 0.17 | 1.1 ± 0.11 | 1.18 ± 0.16 | 1.15 ± 0.1 | 1.19 ± 0.099 | 1.09 ± 0.19 | 1.08 ± 0.17 | 0.854 ± 0.13 | 0.731 ± 0.21
12 | HCC202 BREAST | 0.999 ± 0.37 | 1.23 ± 0.21 | 0.816 ± 0.2 | 0.907 ± 0.31 | 0.697 ± 0.21 | 0.722 ± 0.042 | 0.509 ± 0.019 | 0.505 ± 0.21 | 1.062 ± 0.0076 | 1.28 ± 0.2 | 1.16 ± 0.15 | 1.32 ± 0.44 | 1.27 ± 0.073 | 1.23 ± 0.031 | 0.991 ± 0.13 | 0.86 ± 0.28
13 | CAL51 BREAST | 0.838 ± 0.069 | 0.8707 ± 0.0049 | 0.832 ± 0.047 | 0.737 ± 0.046 | 0.491 ± 0.036 | 0.386 ± 0.025 | 0.248 ± 0.019 | 0.238 ± 0.033 | 0.988 ± 0.068 | 0.984 ± 0.019 | 1.03 ± 0.043 | 0.964 ± 0.039 | 1.02 ± 0.048 | 1.04 ± 0.044 | 1.02 ± 0.048 | 1.02 ± 0.028
14 | SG28 HEADNECK | 0.749 ± 0.055 | 0.772 ± 0.04 | 0.687 ± 0.028 | 0.534 ± 0.087 | 0.439 ± 0.033 | 0.329 ± 0.018 | 0.213 ± 0.016 | 0.204 ± 0.032 | 1.11 ± 0.046 | 1.08 ± 0.11 | 1.02 ± 0.048 | 1.04 ± 0.12 | 1.02 ± 0.18 | 1.07 ± 0.043 | 1.01 ± 0.066 | 1.04 ± 0.13
15 | SG31 HEADNECK | 0.892 ± 0.091 | 0.878 ± 0.19 | 0.722 ± 0.013 | 0.649 ± 0.081 | 0.535 ± 0.02 | 0.44 ± 0.042 | 0.391 ± 0.045 | 0.373 ± 0.016 | 1.21 ± 0.14 | 1.11 ± 0.19 | 1.09 ± 0.12 | 0.866 ± 0.035 | 1.06 ± 0.13 | 0.997 ± 0.03 | 1.13 ± 0.23 | 0.981 ± 0.065
16 | SAOS2 BONE | 0.842 ± 0.055 | 0.788 ± 0.024 | 0.62 ± 0.017 | 0.511 ± 0.043 | 0.475 ± 0.047 | 0.384 ± 0.023 | 0.274 ± 0.032 | 0.256 ± 0.015 | 1.1 ± 0.015 | 1.16 ± 0.11 | 1.23 ± 0.041 | 1.16 ± 0.018 | 1.183 ± 0.0029 | 1.24 ± 0.04 | 1.204 ± 0.012 | 1.1 ± 0.017
17 | SCC36 HEADNECK | 0.788 ± 0.13 | 0.676 ± 0.033 | 0.705 ± 0.078 | 0.678 ± 0.1 | 0.385 ± 0.078 | 0.19 ± 0.032 | 0.12 ± 0.013 | 0.112 ± 0.011 | 1.04 ± 0.094 | 1.09 ± 0.022 | 1.24 ± 0.08 | 1.14 ± 0.072 | 1.15 ± 0.046 | 1.1 ± 0.15 | 1.02 ± 0.061 | 1.02 ± 0.034
18 | DU4475 BREAST | 0.824 ± 0.17 | 0.828 ± 0.09 | 0.802 ± 0.1 | 0.689 ± 0.21 | 0.658 ± 0.031 | 0.748 ± 0.15 | 0.669 ± 0.2 | 0.514 ± 0.083 | 0.872 ± 0.039 | 1.02 ± 0.19 | 0.991 ± 0.14 | 0.983 ± 0.12 | 0.989 ± 0.15 | 0.917 ± 0.32 | 0.998 ± 0.23 | 0.938 ± 0.34
19 | HOS BONE | 0.906 ± 0.018 | 0.908 ± 0.022 | 0.821 ± 0.015 | 0.763 ± 0.048 | 0.693 ± 0.0078 | 0.604 ± 0.015 | 0.382 ± 0.035 | 0.358 ± 0.014 | 1.03 ± 0.02 | 1.025 ± 0.0032 | 1.08 ± 0.029 | 1.02 ± 0.014 | 1.09 ± 0.019 | 1.095 ± 0.0072 | 1.08 ± 0.028 | 1.06 ± 0.025
